System: histamine-induced nasal congestion model
Assay: Histamine-induced nasal congestion model in dogs, oral administration
Assay type: in vivo, Beagle dogs
Experimental: A histamine-induced nasal congestion model in dogs was performed according to the standard procedure [Tiniakov R. L., Tiniakova O. P., McLeod R. L., Hey J. A., Yeates D. B. Canine model of nasal congestion and allergic rhinitis//J Appl Physiol. 2003. V.94(5). P.1821-1828]. Beagle dogs were injected in the nasal cavity with a 5% histamine solution in a volume of 250 μl/nostril. The volume of the nasal cavity of the right and left nostrils was measured using a rhinometer before and 5, 10, 15, 20, 30, 40, 50 and 60 minutes after administration of histamine. Three experiments were performed, in which Compound I was administered orally once at different times: 1) 30 minutes before administration of histamine; 2) 1 hour before administration of histamine; and 3) 6 hours before administration of histamine, and one experiment was performed, in which Compound I was administered orally once daily for 14 days, the last administration was carried out 1 hour before administration of histamine.

[1] = oral 1 hour before histamine, 0.005 mg/kg, 5 minutes after histamine
[2] = oral 1 hour before histamine, 0.005 mg/kg, 10 minutes after histamine
[3] = oral 1 hour before histamine, 0.005 mg/kg, 15 minutes after histamine
[4] = oral 1 hour before histamine, 0.005 mg/kg, 20 minutes after histamine
[5] = oral 1 hour before histamine, 0.005 mg/kg, 30 minutes after histamine
[6] = oral 1 hour before histamine, 0.005 mg/kg, 40 minutes after histamine
[7] = oral 1 hour before histamine, 0.005 mg/kg, 50 minutes after histamine
[8] = oral 1 hour before histamine, 0.005 mg/kg, 60 minutes after histamine
[9] = oral 1 hour before histamine, 0.005 mg/kg, before histamine administration
[10] = oral 1 hour before histamine, 0.05 mg/kg, 5 minutes after histamine
[11] = oral 1 hour before histamine, 0.05 mg/kg, 10 minutes after histamine
[12] = oral 1 hour before histamine, 0.05 mg/kg, 15 minutes after histamine
[13] = oral 1 hour before histamine, 0.05 mg/kg, 20 minutes after histamine
[14] = oral 1 hour before histamine, 0.05 mg/kg, 30 minutes after histamine
[15] = oral 1 hour before histamine, 0.05 mg/kg, 40 minutes after histamine
[16] = oral 1 hour before histamine, 0.05 mg/kg, 50 minutes after histamine
[17] = oral 1 hour before histamine, 0.05 mg/kg, 60 minutes after histamine
[18] = oral 1 hour before histamine, 0.05 mg/kg, before histamine administration
[19] = oral 1 hour before histamine, 0.54 mg/kg, 5 minutes after histamine
[20] = oral 1 hour before histamine, 0.54 mg/kg, 10 minutes after histamine
[21] = oral 1 hour before histamine, 0.54 mg/kg, 15 minutes after histamine
[22] = oral 1 hour before histamine, 0.54 mg/kg, 20 minutes after histamine
[23] = oral 1 hour before histamine, 0.54 mg/kg, 30 minutes after histamine
[24] = oral 1 hour before histamine, 0.54 mg/kg, 40 minutes after histamine
[25] = oral 1 hour before histamine, 0.54 mg/kg, 50 minutes after histamine
[26] = oral 1 hour before histamine, 0.54 mg/kg, 60 minutes after histamine
[27] = oral 1 hour before histamine, 0.54 mg/kg, before histamine administration
[28] = oral 6 hours before histamine, 0.005 mg/kg, 5 minutes after histamine
[29] = oral 6 hours before histamine, 0.005 mg/kg, 10 minutes after histamine
[30] = oral 6 hours before histamine, 0.005 mg/kg, 15 minutes after histamine
[31] = oral 6 hours before histamine, 0.005 mg/kg, 20 minutes after histamine
[32] = oral 6 hours before histamine, 0.005 mg/kg, 30 minutes after histamine
[33] = oral 6 hours before histamine, 0.005 mg/kg, 40 minutes after histamine
[34] = oral 6 hours before histamine, 0.005 mg/kg, 50 minutes after histamine
[35] = oral 6 hours before histamine, 0.005 mg/kg, 60 minutes after histamine
[36] = oral 6 hours before histamine, 0.005 mg/kg, before histamine administration
[37] = oral 6 hours before histamine, 0.05 mg/kg, 5 minutes after histamine
[38] = oral 6 hours before histamine, 0.05 mg/kg, 10 minutes after histamine
[39] = oral 6 hours before histamine, 0.05 mg/kg, 15 minutes after histamine
[40] = oral 6 hours before histamine, 0.05 mg/kg, 20 minutes after histamine
[41] = oral 6 hours before histamine, 0.05 mg/kg, 30 minutes after histamine
[42] = oral 6 hours before histamine, 0.05 mg/kg, 40 minutes after histamine
[43] = oral 6 hours before histamine, 0.05 mg/kg, 50 minutes after histamine
[44] = oral 6 hours before histamine, 0.05 mg/kg, 60 minutes after histamine
[45] = oral 6 hours before histamine, 0.05 mg/kg, before histamine administration
[46] = oral 6 hours before histamine, 0.54 mg/kg, 5 minutes after histamine
[47] = oral 6 hours before histamine, 0.54 mg/kg, 10 minutes after histamine
[48] = oral 6 hours before histamine, 0.54 mg/kg, 15 minutes after histamine
[49] = oral 6 hours before histamine, 0.54 mg/kg, 20 minutes after histamine
[50] = oral 6 hours before histamine, 0.54 mg/kg, 30 minutes after histamine

SMILES: O=C(CC(=O)NCCc1cnc[nH]1)NCCc1cnc[nH]1 [Compound I, N,N′-bis(2-(1H-imidazol-5-yl)ethyl)malonamide]
- onset of the therapeutic effect (after a single oral administration, dogs): ≤ 30 min
- Volume of the nasal cavity, left nostril [1]: 3.1 ± 0.2$ cm^3
- Volume of the nasal cavity, right nostril [1]: 3.1 ± 0.5$ cm^3
- Volume of the nasal cavity, left nostril [2]: 2.4 ± 0.4$ cm^3
- Volume of the nasal cavity, right nostril [2]: 2.1 ± 0.1$ cm^3
- Volume of the nasal cavity, left nostril [3]: 2.2 ± 0.2$ cm^3
- Volume of the nasal cavity, right nostril [3]: 2.8 ± 0.5$ cm^3
- Volume of the nasal cavity, left nostril [4]: 2.3 ± 0.14$ cm^3
- Volume of the nasal cavity, right nostril [4]: 2.6 ± 0.4$ cm^3
- Volume of the nasal cavity, left nostril [5]: 2.0 ± 0.2$ cm^3
- Volume of the nasal cavity, right nostril [5]: 3.0 ± 0.5$ cm^3
- Volume of the nasal cavity, left nostril [6]: 3.6 ± 0.2 cm^3
- Volume of the nasal cavity, right nostril [6]: 3.4 ± 0.2$ cm^3
- Volume of the nasal cavity, left nostril [7]: 3.3 ± 0.2$ cm^3
- Volume of the nasal cavity, right nostril [7]: 3.7 ± 0.24$ cm^3
- Volume of the nasal cavity, left nostril [8]: 3.4 ± 0.1$ cm^3
- Volume of the nasal cavity, right nostril [8]: 3.5 ± 0.2$ cm^3
- Volume of the nasal cavity, left nostril [9]: 3.9 ± 0.2 cm^3
- Volume of the nasal cavity, right nostril [9]: 4.3 ± 0.2 cm^3
- Volume of the nasal cavity, left nostril [10]: 2.8 ± 0.1$ cm^3
- Volume of the nasal cavity, right nostril [10]: 2.8 ± 0.3$ cm^3
- Volume of the nasal cavity, left nostril [11]: 3.1 ± 0.24$ cm^3
- Volume of the nasal cavity, right nostril [11]: 3.5 ± 0.24$ cm^3
- Volume of the nasal cavity, left nostril [12]: 3.1 ± 0.14$ cm^3
- Volume of the nasal cavity, right nostril [12]: 2.6 ± 0.2$ cm^3
- Volume of the nasal cavity, left nostril [13]: 2.5 ± 0.14$ cm^3
- Volume of the nasal cavity, right nostril [13]: 2.5 ± 0.14$ cm^3
- Volume of the nasal cavity, left nostril [14]: 3.6 ± 0.24 cm^3
- Volume of the nasal cavity, right nostril [14]: 3.5 ± 0.24 cm^3
- Volume of the nasal cavity, left nostril [15]: 3.7 ± 0.34 cm^3
- Volume of the nasal cavity, right nostril [15]: 3.7 ± 0.24 cm^3
- Volume of the nasal cavity, left nostril [16]: 3.2 ± 0.1$ cm^3
- Volume of the nasal cavity, right nostril [16]: 3.2 ± 0.1$ cm^3
- Volume of the nasal cavity, left nostril [17]: 3.2 ± 0.1$ cm^3
- Volume of the nasal cavity, right nostril [17]: 3.5 ± 0.1$ cm^3
- Volume of the nasal cavity, left nostril [18]: 4.0 ± 0.3 cm^3
- Volume of the nasal cavity, right nostril [18]: 4.2 ± 0.2 cm^3
- Volume of the nasal cavity, left nostril [19]: 2.6 ± 0.1$ cm^3
- Volume of the nasal cavity, right nostril [19]: 3.0 ± 0.4$ cm^3
- Volume of the nasal cavity, left nostril [20]: 3.4 ± 0.14$ cm^3
- Volume of the nasal cavity, right nostril [20]: 3.0 ± 0.24$ cm^3
- Volume of the nasal cavity, left nostril [21]: 2.5 ± 0.2$ cm^3
- Volume of the nasal cavity, right nostril [21]: 3.0 ± 0.24$ cm^3
- Volume of the nasal cavity, left nostril [22]: 2.5 ± 0.24$ cm^3
- Volume of the nasal cavity, right nostril [22]: 2.8 ± 0.34$ cm^3
- Volume of the nasal cavity, left nostril [23]: 3.8 ± 0.24 cm^3
- Volume of the nasal cavity, right nostril [23]: 3.6 ± 0.24$ cm^3
- Volume of the nasal cavity, left nostril [24]: 3.6 ± 0.14$ cm^3
- Volume of the nasal cavity, right nostril [24]: 3.6 ± 0.24$ cm^3
- Volume of the nasal cavity, left nostril [25]: 3.3 ± 0.3$ cm^3
- Volume of the nasal cavity, right nostril [25]: 3.4 ± 0.1$ cm^3
- Volume of the nasal cavity, left nostril [26]: 3.3 ± 0.2$ cm^3
- Volume of the nasal cavity, right nostril [26]: 3.2 ± 0.2$ cm^3
- Volume of the nasal cavity, left nostril [27]: 4.1 ± 0.1 cm^3
- Volume of the nasal cavity, right nostril [27]: 4.4 ± 0.1 cm^3
- Volume of the nasal cavity, left nostril [28]: 2.0 ± 0.3$ cm^3
- Volume of the nasal cavity, right nostril [28]: 2.1 ± 0.3$ cm^3
- Volume of the nasal cavity, left nostril [29]: 1.9 ± 0.1$ cm^3
- Volume of the nasal cavity, right nostril [29]: 2.0 ± 0.1$ cm^3
- Volume of the nasal cavity, left nostril [30]: 2.4 ± 0.24$ cm^3
- Volume of the nasal cavity, right nostril [30]: 2.4 ± 0.14$ cm^3
- Volume of the nasal cavity, left nostril [31]: 3.2 ± 0.24$ cm^3
- Volume of the nasal cavity, right nostril [31]: 3.2 ± 0.24$ cm^3
- Volume of the nasal cavity, left nostril [32]: 3.3 ± 0.14$ cm^3
- Volume of the nasal cavity, right nostril [32]: 3.4 ± 0.14$ cm^3
- Volume of the nasal cavity, left nostril [33]: 3.3 ± 0.2$ cm^3
- Volume of the nasal cavity, right nostril [33]: 3.4 ± 0.1$ cm^3
- Volume of the nasal cavity, left nostril [34]: 3.4 ± 0.1$ cm^3
- Volume of the nasal cavity, right nostril [34]: 3.5 ± 0.2$ cm^3
- Volume of the nasal cavity, left nostril [35]: 3.6 ± 0.2$ cm^3
- Volume of the nasal cavity, right nostril [35]: 3.4 ± 0.2$ cm^3
- Volume of the nasal cavity, left nostril [36]: 4.4 ± 0.1 cm^3
- Volume of the nasal cavity, right nostril [36]: 4.4 ± 0.2 cm^3
- Volume of the nasal cavity, left nostril [37]: 2.2 ± 0.1$ cm^3
- Volume of the nasal cavity, right nostril [37]: 2.2 ± 0.2$ cm^3
- Volume of the nasal cavity, left nostril [38]: 2.4 ± 0.2$ cm^3
- Volume of the nasal cavity, right nostril [38]: 2.3 ± 0.2$ cm^3
- Volume of the nasal cavity, left nostril [39]: 2.0 ± 0.24$ cm^3
- Volume of the nasal cavity, right nostril [39]: 2.0 ± 0.14$ cm^3
- Volume of the nasal cavity, left nostril [40]: 3.4 ± 0.14$ cm^3
- Volume of the nasal cavity, right nostril [40]: 3.2 ± 0.24$ cm^3
- Volume of the nasal cavity, left nostril [41]: 3.4 ± 0.24$ cm^3
- Volume of the nasal cavity, right nostril [41]: 3.4 ± 0.14$ cm^3
- Volume of the nasal cavity, left nostril [42]: 3.1 ± 0.1$ cm^3
- Volume of the nasal cavity, right nostril [42]: 3.1 ± 0.1$ cm^3
- Volume of the nasal cavity, left nostril [43]: 3.4 ± 0.1$ cm^3
- Volume of the nasal cavity, right nostril [43]: 3.4 ± 0.1$ cm^3
- Volume of the nasal cavity, left nostril [44]: 3.6 ± 0.1$ cm^3
- Volume of the nasal cavity, right nostril [44]: 3.5 ± 0.1$ cm^3
- Volume of the nasal cavity, left nostril [45]: 4.2 ± 0.2 cm^3
- Volume of the nasal cavity, right nostril [45]: 4.1 ± 0.1 cm^3
- Volume of the nasal cavity, left nostril [46]: 2.7 ± 0.2$ cm^3
- Volume of the nasal cavity, right nostril [46]: 2.7 ± 0.3$ cm^3
- Volume of the nasal cavity, left nostril [47]: 2.8 ± 0.24$ cm^3
- Volume of the nasal cavity, right nostril [47]: 2.8 ± 0.24$ cm^3
- Volume of the nasal cavity, left nostril [48]: 2.8 ± 0.14$ cm^3
- Volume of the nasal cavity, right nostril [48]: 2.8 ± 0.24$ cm^3
- Volume of the nasal cavity, left nostril [49]: 3.4 ± 0.14$ cm^3
- Volume of the nasal cavity, right nostril [49]: 3.5 ± 0.14$ cm^3
- Volume of the nasal cavity, left nostril [50]: 3.5 ± 0.24$ cm^3
- Volume of the nasal cavity, right nostril [50]: 3.4 ± 0.14$ cm^3
